# Source: article PMC5439695 (PLoS ONE, 2017)
# How the values were obtained:
# HepG2 cells [1] = test: CellTox Green Cytotoxicity Assay (flor) in HepG2, HepG2[flor]; format: cell-based, human; details: HepG2 flor;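 for hepg2 flor emax 0: percent activity versus DMSO-only wells with baseline rescaled to 0%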;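 for hepg2 flor emax 40: percent activity versus DMSO-only wells with baseline rescaled to 0%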
# HEK293 cells [2] = details: HEK293 glo
# HEK293 cells [3] = details: HEK293 flor
# HepG2 cells [4] = details: HepG2 glo
# [5] = test system: HEK293 and HepG2 cell lines
# Throughout, for hek293 flor emax 0: unit not given here.
smiles,measurement,setting,value
O=C(O)c1ccccc1O.Oc1cccc2cccnc12 [8-Quinolinol Salicylic acid (1:1)],hepg2_flor_auc,HepG2 cells [1],0
same,hepg2_flor_time,HepG2 cells [1],48
same,hepg2_flor_bin,HepG2 cells [1]; kinetics bin,inactive
same,hepg2_flor_emax_0,HepG2 cells [1]; time point 0,0
same,hepg2_flor_pod_0,HepG2 cells [1]; time point 0,-4.417
same,hepg2_flor_wauc_0,HepG2 cells [1]; time point 0,0
same,hepg2_flor_emax_8,HepG2 cells [1]; time point 8,0
same,hepg2_flor_pod_8,HepG2 cells [1]; time point 8,-4.417
same,hepg2_flor_wauc_8,HepG2 cells [1]; time point 8,0
same,hepg2_flor_emax_16,HepG2 cells [1]; time point 16,0
same,hepg2_flor_pod_16,HepG2 cells [1]; time point 16,-4.417
same,hepg2_flor_wauc_16,HepG2 cells [1]; time point 16,0
same,hepg2_flor_emax_24,HepG2 cells [1]; time point 24,0
same,hepg2_flor_pod_24,HepG2 cells [1]; time point 24,-4.417
same,hepg2_flor_wauc_24,HepG2 cells [1]; time point 24,0
same,hepg2_flor_emax_32,HepG2 cells [1]; time point 32,0
same,hepg2_flor_pod_32,HepG2 cells [1]; time point 32,-4.417
same,hepg2_flor_wauc_32,HepG2 cells [1]; time point 32,0
same,hepg2_flor_emax_40,HepG2 cells [1]; time point 40,0
same,hepg2_flor_pod_40,HepG2 cells [1]; time point 40,-4.417
same,hepg2_flor_wauc_40,HepG2 cells [1]; time point 40,0
same,hek293_glo_auc,HEK293 cells [2],0
same,hek293_glo_time,HEK293 cells [2],48
same,hek293_glo_bin,HEK293 cells [2]; kinetics bin,inactive
same,hek293_glo_emax_0,HEK293 cells [2]; time point 0,0
same,hek293_glo_pod_0,HEK293 cells [2]; time point 0,-4.417
same,hek293_glo_wauc_0,HEK293 cells [2]; time point 0,0
same,hek293_glo_emax_8,HEK293 cells [2]; time point 8,0
same,hek293_glo_pod_8,HEK293 cells [2]; time point 8,-4.417
same,hek293_glo_wauc_8,HEK293 cells [2]; time point 8,0
same,hek293_glo_emax_16,HEK293 cells [2]; time point 16,0
same,hek293_glo_pod_16,HEK293 cells [2]; time point 16,-4.417
same,hek293_glo_wauc_16,HEK293 cells [2]; time point 16,0
same,hek293_glo_emax_24,HEK293 cells [2]; time point 24,0
same,hek293_glo_pod_24,HEK293 cells [2]; time point 24,-4.417
same,hek293_glo_wauc_24,HEK293 cells [2]; time point 24,0
same,hek293_glo_emax_32,HEK293 cells [2]; time point 32,0
same,hek293_glo_pod_32,HEK293 cells [2]; time point 32,-4.417
same,hek293_glo_wauc_32,HEK293 cells [2]; time point 32,0
same,hek293_glo_emax_40,HEK293 cells [2]; time point 40,0
same,hek293_glo_pod_40,HEK293 cells [2]; time point 40,-4.417
same,hek293_glo_wauc_40,HEK293 cells [2]; time point 40,0
same,hek293_flor_auc,HEK293 cells [3],0
same,hek293_flor_time,HEK293 cells [3],48
same,hek293_flor_bin,HEK293 cells [3]; kinetics bin,inactive
same,hek293_flor_emax_0,HEK293 cells [3]; time point 0,0
same,hek293_flor_pod_0,HEK293 cells [3]; time point 0,-4.417
same,hek293_flor_wauc_0,HEK293 cells [3]; time point 0,0
same,hek293_flor_emax_8,HEK293 cells [3]; time point 8,0
same,hek293_flor_pod_8,HEK293 cells [3]; time point 8,-4.417
same,hek293_flor_wauc_8,HEK293 cells [3]; time point 8,0
same,hek293_flor_emax_16,HEK293 cells [3]; time point 16,0
same,hek293_flor_pod_16,HEK293 cells [3]; time point 16,-4.417
same,hek293_flor_wauc_16,HEK293 cells [3]; time point 16,0
same,hek293_flor_emax_24,HEK293 cells [3]; time point 24,0
same,hek293_flor_pod_24,HEK293 cells [3]; time point 24,-4.417
same,hek293_flor_wauc_24,HEK293 cells [3]; time point 24,0
same,hek293_flor_emax_32,HEK293 cells [3]; time point 32,0
same,hek293_flor_pod_32,HEK293 cells [3]; time point 32,-4.417
same,hek293_flor_wauc_32,HEK293 cells [3]; time point 32,0
same,hek293_flor_emax_40,HEK293 cells [3]; time point 40,0
same,hek293_flor_pod_40,HEK293 cells [3]; time point 40,-4.417
same,hek293_flor_wauc_40,HEK293 cells [3]; time point 40,0
same,hepg2_glo_auc,HepG2 cells [4],0
same,hepg2_glo_time,HepG2 cells [4],48
same,hepg2_glo_bin,HepG2 cells [4]; kinetics bin,inactive
same,hepg2_glo_emax_0,HepG2 cells [4]; time point 0,0
same,hepg2_glo_pod_0,HepG2 cells [4]; time point 0,-4.417
same,hepg2_glo_wauc_0,HepG2 cells [4]; time point 0,0
same,hepg2_glo_emax_8,HepG2 cells [4]; time point 8,0
same,hepg2_glo_pod_8,HepG2 cells [4]; time point 8,-4.417
same,hepg2_glo_wauc_8,HepG2 cells [4]; time point 8,0
same,hepg2_glo_emax_16,HepG2 cells [4]; time point 16,0
same,hepg2_glo_pod_16,HepG2 cells [4]; time point 16,-4.417
same,hepg2_glo_wauc_16,HepG2 cells [4]; time point 16,0
same,hepg2_glo_emax_24,HepG2 cells [4]; time point 24,0
same,hepg2_glo_pod_24,HepG2 cells [4]; time point 24,-4.417
same,hepg2_glo_wauc_24,HepG2 cells [4]; time point 24,0
same,hepg2_glo_emax_32,HepG2 cells [4]; time point 32,0
same,hepg2_glo_pod_32,HepG2 cells [4]; time point 32,-4.417
same,hepg2_glo_wauc_32,HepG2 cells [4]; time point 32,0
same,hepg2_glo_emax_40,HepG2 cells [4]; time point 40,0
same,hepg2_glo_pod_40,HepG2 cells [4]; time point 40,-4.417
same,hepg2_glo_wauc_40,HepG2 cells [4]; time point 40,0
same,information,[5],0
